Assay results reported in ChEMBL document CHEMBL3046236, “The application of comparative molecular field analysis for the design of -anilino substituted-3-phenyl propanoic acids as novel PPAR/ dual ligands” (Med Chem Res, 2012).
pEC50: −log10 of the molar value.

Legend:
[1] = biological target: T1, Peroxisome proliferator-activated receptor alpha (Homo sapiens, UniProt Q07869); assay: Transactivation of Homo sapiens (human) PPARalpha assessed as luciferase activity by reporter gene assay
T1 sequence (Q07869 whole entry): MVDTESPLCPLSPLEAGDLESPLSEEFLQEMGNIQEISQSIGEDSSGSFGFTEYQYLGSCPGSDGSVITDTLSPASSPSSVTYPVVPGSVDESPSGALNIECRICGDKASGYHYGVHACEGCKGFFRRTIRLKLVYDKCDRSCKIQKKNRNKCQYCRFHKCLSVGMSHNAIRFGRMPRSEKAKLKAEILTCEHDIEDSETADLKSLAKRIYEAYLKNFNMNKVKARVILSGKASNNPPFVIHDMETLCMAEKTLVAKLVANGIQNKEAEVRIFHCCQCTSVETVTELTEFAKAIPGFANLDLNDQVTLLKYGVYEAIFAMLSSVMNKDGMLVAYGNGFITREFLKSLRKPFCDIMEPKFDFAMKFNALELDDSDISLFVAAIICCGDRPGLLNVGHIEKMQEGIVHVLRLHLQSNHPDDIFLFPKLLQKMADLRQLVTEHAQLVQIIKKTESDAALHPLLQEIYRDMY

[2] = biological target: T2, Peroxisome proliferator-activated receptor gamma (Homo sapiens, UniProt P37231)
T2 sequence (P37231 whole entry): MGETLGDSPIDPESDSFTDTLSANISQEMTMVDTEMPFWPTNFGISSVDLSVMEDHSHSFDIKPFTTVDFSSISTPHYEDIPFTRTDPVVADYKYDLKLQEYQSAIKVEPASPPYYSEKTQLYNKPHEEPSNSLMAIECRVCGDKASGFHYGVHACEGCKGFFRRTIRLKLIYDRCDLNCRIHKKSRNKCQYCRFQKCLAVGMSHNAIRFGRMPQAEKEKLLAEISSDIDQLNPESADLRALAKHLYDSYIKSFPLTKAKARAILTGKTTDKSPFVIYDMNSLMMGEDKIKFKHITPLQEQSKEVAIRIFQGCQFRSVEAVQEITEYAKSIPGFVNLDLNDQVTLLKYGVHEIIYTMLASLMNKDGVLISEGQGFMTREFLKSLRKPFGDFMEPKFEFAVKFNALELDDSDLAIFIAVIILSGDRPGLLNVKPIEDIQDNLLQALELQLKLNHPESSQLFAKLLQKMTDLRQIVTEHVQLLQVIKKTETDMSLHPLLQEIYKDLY
Description: Transactivation of Homo sapiens (human) PPARgamma assessed as luciferase activity by reporter gene assay

Cc1sc(-c2ccncc2)nc1CCOc1ccc(C[C@H](Nc2ccccc2C(=O)c2ccccc2)C(=O)O)cc1
pEC50 [1]: < 5.00

Cc1oc(C2CCCCC2)nc1CCOc1ccc(C[C@H](Oc2ccccc2)C(=O)O)cc1
pEC50 [2]: 9.00 | pEC50 [1]: 9.00

CC(C)O[C@H](Cc1ccc(OCc2noc(-c3cc(C(F)(F)F)cc(C(F)(F)F)c3)n2)cc1)C(=O)O
pEC50 [2]: 6.20 | pEC50 [1]: 5.60

CC(C)O[C@@H](Cc1ccc(OCc2noc(-c3cc(C(F)(F)F)cc(C(F)(F)F)c3)n2)cc1)C(=O)O
pEC50 [2]: 7.50 | pEC50 [1]: 8.40

CCO[C@@H](Cc1ccc(OC/C=C(/c2ccccc2)c2ccc(F)cc2)cc1)C(=O)O
pEC50 [2]: 5.07 | pEC50 [1]: 5.28

CCO[C@@H](Cc1ccc(OC/C=C(/c2ccccc2)c2ccc(-c3ccccc3)cc2)cc1)C(=O)O
pEC50 [1]: 6.05

CCO[C@@H](Cc1ccc(OCC=C(c2ccc(C)cc2)c2ccc(C)cc2)cc1)C(=O)O
pEC50 [1]: 6.16

CCO[C@@H](Cc1ccc(OC/C=C(\c2ccccc2)c2ccc(Br)cc2)cc1)C(=O)O
pEC50 [2]: 5.37 | pEC50 [1]: 5.66
